*1 amine or outer side, *2 acyl side, *3 side chain or, on linkers, in order; H or OH if unused. Where a SMILES comes first, the peptide text is derived from it. Bridges are numbered along the chain shown (N, C = ends). Side-chain parts run from the residue outwards. [ ]: non-standard residue; d: D form. The star is where a group is joined. ξ: configuration not given here. Me3N+CH2CH2(OCH2CH2)4CO = C[N+](C)(C)CCOCCOCCOCCOCCC(=O)*; PEG12 = NCCOCCOCCOCCOCCOCCOCCOCCOCCOCCOCCOCCOCCC(=O)O; Trp(7-Me) = Cc1cccc2c(C[C@H](N)C(=O)O)c[nH]c12; Abu(4-yl) = O=C([C@H](CC[*:3])N[*:1])[*:2]; C18 diacid = O=C(O)CCCCCCCCCCCCCCCCC(=O)*; X6 = CN(CC[C@H](N[*:1])C(=O)[*:2])[*:3]; γGlu = O=C(O)[C@H](CCC(=O)[*:2])N[*:1]; 2Nal = N[C@@H](Cc1ccc2ccccc2c1)C(=O)O; AEF = NCCOc1ccc(C[C@H](N)C(=O)O)cc1; 3Pal = N[C@@H](Cc1cccnc1)C(=O)O; aThr = C[C@H](O)[C@H](N)C(=O)O; NMeK = CN[C@@H](CCCCN)C(=O)O; PEG4 = NCCOCCOCCOCCOCCC(=O)O; Pen = CC(C)(S)[C@H](N)C(=O)O; Lauroyl = CCCCCCCCCCCC(=O)*; αMeC = C[C@](N)(CS)C(=O)O; ξR = N=C(N)NCCCC(N)C(=O)O; Thp = NC1(C(=O)O)CCOCC1; AEEA = NCCOCCOCC(=O)O; ClAc = O=C(CCl)*; Sar = CNCC(=O)O

The target of assay [1] is T1, IL-23R (Homo sapiens, UniProt Q5VWK5).
T1 construct: HEK293 cells containing IL-23R, IL-12Rβ1 and a firefly luciferase reporter gene driven by a STAT-inducible promoter (Promega); host or cells: HEK293
T1 sequence (Q5VWK5 24-629): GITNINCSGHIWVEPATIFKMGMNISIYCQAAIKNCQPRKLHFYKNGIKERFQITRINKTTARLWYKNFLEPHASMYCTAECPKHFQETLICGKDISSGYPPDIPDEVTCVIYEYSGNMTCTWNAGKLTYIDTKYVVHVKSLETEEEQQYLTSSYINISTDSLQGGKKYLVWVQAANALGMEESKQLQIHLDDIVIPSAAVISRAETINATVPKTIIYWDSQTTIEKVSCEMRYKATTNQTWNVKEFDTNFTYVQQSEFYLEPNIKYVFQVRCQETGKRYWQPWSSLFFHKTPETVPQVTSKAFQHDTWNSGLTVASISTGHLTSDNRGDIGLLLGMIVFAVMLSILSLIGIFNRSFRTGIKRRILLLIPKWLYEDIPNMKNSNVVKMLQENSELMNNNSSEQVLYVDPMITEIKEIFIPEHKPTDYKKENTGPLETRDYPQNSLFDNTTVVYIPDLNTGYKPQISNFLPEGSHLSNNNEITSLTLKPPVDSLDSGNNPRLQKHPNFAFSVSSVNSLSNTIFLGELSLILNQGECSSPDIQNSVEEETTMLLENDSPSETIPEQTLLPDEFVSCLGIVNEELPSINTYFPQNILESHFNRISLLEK
The assay can be described thus: IL23R Reporter Assay. The class given is cell-based. As to conditions: HEK293 cells containing IL-23R, IL-12Rβ1 and STAT-inducible firefly luciferase reporter; 10 ng/mL IL-23 (EC90); 5 h. The procedure: Compounds were serially diluted in 100% (v/v) DMSO) and plated using an Echo acoustic dispenser (Labcyte) into 1536-well non-treated black assay plates (Corning #9146). 3 μL of HEK293 cells containing IL-23R, IL-12Rβ1 and a firefly luciferase reporter gene driven by a STAT-inducible promoter (Promega) were added to the plates (4000 cells/well), followed by 3 μL of 10 ng/mL IL-23 (equivalent to EC90 concentration). After 5 h at 37° C., 5% CO2, 95% relative humidity, cells were placed at 20° C. and treated with BioGlo reagent (Promega) according to the Manufacturer's instructions. Luminescence was measured on a Pherastar FSX (BMG LabTech). Data were normalized to IL-23 treatment (0% inhibition) and 30 μM of control inhibitor (100% inhibition), and IC50 values were determined using a 4-parameter Hill equation.

Assay [2] has as its system IL-23-stimulated phosphorylated STAT3 in peripheral blood mononuclear cells (PBMCs). The assay can be described thus: PBMC pSTAT3 Assay. Type of assay: cell-based. The note with it: PBMCs from healthy donors; 30 min preincubation with peptide; IL-23 5 ng/mL for 30 min; phospho-STAT3 by MSD. The procedure:
Cryopreserved peripheral blood mononuclear cells (PBMCs) from healthy donors were thawed and washed twice in ImmunoCult-XF T cell expansion medium (XF-TCEM) supplemented with CTL anti-aggregate wash. The cells were counted, resuspended at 2-6×10^5 cells per mL XF-TCEM supplemented with penicillin/streptomycin and 100 ng/mL […] (BioLegend, 579404), and cultured in tissue culture flasks coated with anti-CD3 (eBioscience, 16-0037-85 or BD Pharmingen, 555329) at 37° C. in 5% CO2. On day 4 of culture, PBMCs were collected, washed twice in RPMI-1640 supplemented with 0.1% BSA (RPMI-BSA), and incubated in RPMI-BSA in upright tissue culture flasks for ~4 hours at 37° C. in 5% CO2. Following this 'starvation,' a total of 6×10^4 cells in 30 μL RPMI-BSA was transferred into each well of a 384-well plate pre-spotted with peptide or DMSO. The cells were incubated for 30 minutes prior to the addition of […] at a final concentration of 5 ng/mL. The cells were stimulated with cytokine for 30 minutes at 37° C. in 5% CO2, transferred onto ice for 10 minutes, and lysed. Cell lysates were stored at -80° C. until phosphorylated STAT3 was measured using the phospho-STAT panel kit (Meso Scale Discovery, […]). Results are provided below. • A: IC50<0.5 nM; • B: 0.5 nM≤IC50<5 nM; • C: 5 nM≤IC50; • ND: Not determined

On to `CC(=O)NCCCC[C@H](NC(=O)C1(NC(=O)[C@H](Cc2ccc3ccccc3c2)NC(=O)[C@H](Cc2ccc(OCCN)cc2)NC(=O)[C@@H](NC(=O)[C@@H](N)CCCCNC(C)=O)C(C)(C)SSC(C)(C)[C@H](NC(C)=O)C(=O)N[C@@H](CC(N)=O)C(=O)N[C@H](C(=O)N[C@H](Cc2c[nH]c3c(C)cccc23)C(C)=O)[C@@H](C)O)CCOCC1)C(=O)N[C@@H](CC(N)=O)C(=O)N[C@@H](Cc1cccnc1)C(=O)N(C)CC(=O)N[C@@H](CCCCNC(=O)COCCOCCN(C)C(=O)COCCOCCN(C)C(=O)CC[C@@H](C(=O)O)N(C)C(=O)CCCCCCCCCCCCCCCCCc1nnn[nH]1)C(N)=O` [compound 2, MeCO-Pen(3)-N-T-7MeW-K(Ac)-Pen(3)-AEF-2Nal-THP-K(Ac)-N-3Pya-Sar-K(PEG2NMePEG2NMegENMeC18Tetrazole)-CONH2], for which the figures for the concentration for half-maximal inhibition (IC50) in assay [1] and in assay [2] were 50 to 500 nM and under 0.5 nM, respectively.

Regarding `CC(=O)NCCCC[C@@H]1NC(=O)[C@H](Cc2c[nH]c3c(C)cccc23)NC(=O)[C@H]([C@@H](C)O)NC(=O)[C@H](CC(N)=O)NC(=O)[C@@H](NC(C)=O)C(C)(C)SSC(C)(C)[C@@H](C(=O)N[C@@H](Cc2ccc(OCCN)cc2)C(=O)N[C@@H](Cc2ccc3ccccc3c2)C(=O)NC2(C(=O)N[C@@H](CCC(=O)O)C(=O)N[C@@H](CC(N)=O)C(=O)N[C@@H](Cc3cccnc3)C(=O)N(C)CC(=O)N[C@@H](CCCCNC(=O)COCCOCCN(C)C(=O)COCCOCCN(C)C(=O)CC[C@@H](C(=O)O)N(C)C(=O)CCCCCCCCCCCCCCCCCc3nnn[nH]3)C(N)=O)CCOCC2)NC1=O` [compound 3, MeCO-Pen(3)-N-T-7MeW-K(Ac)-Pen(3)-AEF-2Nal-THP-E-N-3Pya-Sar-K(PEG2NMePEG2NMegENMeC18Tetrazole)-CONH2], the values for the IC50 in assay [1] and in assay [2] were under 50 nM and under 0.5 nM, respectively.

`CC(=O)NCCCC[C@@H]1NC(=O)[C@H](Cc2c[nH]c3c(C)cccc23)NC(=O)[C@H]([C@@H](C)O)NC(=O)[C@H](CC(N)=O)NC(=O)[C@@H](NC(=O)[C@@H](CCCNC(=N)N)NC(C)=O)C(C)(C)SSC(C)(C)[C@@H](C(=O)N[C@@H](Cc2ccc(OCCN)cc2)C(=O)N[C@@H](Cc2ccc3ccccc3c2)C(=O)NC2(C(=O)N[C@@H](CCCCNC(=O)CCOCCOCCOCCOCCNC(=O)CCl)C(=O)N[C@@H](CC(N)=O)C(=O)N[C@@H](Cc3cccnc3)C(=O)N(C)CC(=O)N[C@@H](CCCCNC(=O)COCCOCCNC(=O)COCCOCCNC(=O)CC[C@H](NC(=O)CCCCCCCCCCCCCCCCC(=O)O)C(=O)O)C(N)=O)CCOCC2)NC1=O` [compound 4, MeCO-r-Pen(3)-N-T-7MeW-K(Ac)-Pen(3)-AEF-2Nal-THP-K(PEG4AcCl)-N-3Pya-Sar-K(PEG2PEG2gEC18OH)-CONH2] (Ac-[dR][Pen]NT[Trp(7-Me)]K(Ac)[Pen][AEF][2Nal][Thp]K([PEG4-ClAc])N[3Pal][Sar]K([AEEA-AEEA-γGlu-C18 diacid])-NH2; disulfide 2-7): the values for the IC50 in assay [1] and in assay [2] were under 50 nM and under 0.5 nM, respectively.

`CCCCCCCCCCCC(=O)N[C@@H](CCC(=O)NCCOCCOCC(=O)NCCOCCOCC(=O)NC(CCCNC(=N)N)C(=O)N[C@H]1CCSC[C@@](C)(C(=O)N[C@@H](Cc2ccc(OCCN)cc2)C(=O)N[C@@H](Cc2ccc3ccccc3c2)C(=O)NC2(C(=O)N[C@@H](CCC(=O)O)C(=O)N[C@@H](CC(N)=O)C(=O)N[C@@H](Cc3cccnc3)C(=O)N(C)CC(N)=O)CCOCC2)NC(=O)[C@H](CCCCNC(C)=O)NC(=O)[C@H](Cc2c[nH]c3ccccc23)NC(=O)[C@H]([C@H](C)O)NC(=O)[C@H](CC(N)=O)NC1=O)C(=O)O` (stereo partly drawn) [compound 5, C12gEPEG2PEG2CO-r-Abu(1)-N-T-W-K(Ac)-aMeC(1)-AEF-2Nal-THP-E-N-3Pya-Sar-CONH2] ({Lauroyl-γGlu-AEEA-AEEA}-[ξR][Abu(4-yl)]N[aThr]WK(Ac)[αMeC][AEF][2Nal][Thp]EN[3Pal][Sar]-NH2; thioether 2-7): the IC50 is under 50 nM in assay [1] and 0.5 to 5 nM in assay [2].

In turn, `CC(=O)NCCCC[C@@H]1NC(=O)[C@H](Cc2c[nH]c3c(C)cccc23)NC(=O)[C@H]([C@@H](C)O)NC(=O)[C@H](CC(N)=O)NC(=O)[C@@H](NC(C)=O)C(C)(C)SSC(C)(C)[C@@H](C(=O)N[C@@H](Cc2ccc(OCCCCC[N+](C)(C)C)cc2)C(=O)N[C@@H](Cc2ccc3ccccc3c2)C(=O)NC2(C(=O)N[C@@H](CCCCNC(=O)COCCOCCNC(=O)COCCOCCNC(=O)CC[C@H](NC(=O)CCCCCCCCCCCCCCCCC(=O)O)C(=O)O)C(=O)N[C@@H](CC(N)=O)C(=O)N[C@@H](Cc3ccccn3)C(=O)N(C)CC(N)=O)CCOCC2)NC1=O` [compound 85, MeCO-Pen(3)-N-T-7MeW-K(Ac)-Pen(3)-TMAPF-2Nal-THP-K(PEG2PEG2gEC18OH)-N-3Pya-Sar-CONH2] came in with an IC50 in assay [2] of under 0.5 nM.

For `CC(=O)NCCCC[C@@H]1NC(=O)[C@H](Cc2c[nH]c3c(C)cccc23)NC(=O)[C@H]([C@@H](C)O)NC(=O)[C@H](CC(N)=O)NC(=O)[C@@H](NC(C)=O)C(C)(C)SSC(C)(C)[C@@H](C(=O)N[C@@H](Cc2ccc(OCCCCC[N+](C)(C)C)cc2)C(=O)N[C@@H](Cc2ccc3ccccc3c2)C(=O)NC2(C(=O)N[C@@H](CCCCNC(=O)COCCOCCNC(=O)COCCOCCNC(=O)CC[C@H](NC(=O)CCCCCCCCCCCCCCCCC(=O)O)C(=O)O)C(=O)N[C@@H](N)C(=O)N[C@@H](Cc3ccccn3)C(=O)N(C)CC(N)=O)CCOCC2)NC1=O` [compound 86, MeCO-Pen(3)-N-T-7MeW-K(NMecPEG3a)-Pen(3)-AEF-2Nal-THP-K(PEG2PEG2gEC18OH)-N-3Pya-Sar-CONH2], the half-inhibitory concentration (IC50) in assay [2] is under 0.5 nM.

In the case of `Cc1cccc2c(C[C@@H]3NC(=O)[C@H]([C@@H](C)O)NC(=O)[C@H](CC(=O)N(C)C)NC(=O)[C@@H](NC(=O)CCOCCOCCOCCOCC[N+](C)(C)C)C(C)(C)SSC(C)(C)[C@@H](C(=O)N[C@@H](Cc4ccc(OCCN)cc4)C(=O)N[C@@H](Cc4ccc5ccccc5c4)C(=O)NC4(C(=O)N[C@@H](CCC(=O)O)C(=O)N[C@@H](CC(N)=O)C(=O)N[C@@H](Cc5cccnc5)C(=O)N(C)[C@@H](CCCCNC(=O)CCOCCOCCOCCOCCOCCOCCOCCOCCOCCOCCOCCOCCNC(=O)CC[C@H](NC(=O)CCCCCCCCCCCCCCCCC(=O)O)C(=O)O)C(N)=O)CCOCC4)NC(=O)[C@H](CCN(C)C(=O)CCOCCOCCOCCOCC[N+](C)(C)C)NC3=O)c[nH]c12` [compound 111, cPEG5aCO-Pen(3)-N(N(Me)2)-T-7MeW-Dab(NMecPEG5a)-Pen(3)-AEF-2Nal-THP-E-N-3Pya-NMeK(PEG12gEC18OH)-CONH2] ({Me3N+CH2CH2(OCH2CH2)4CO}-[Pen]D(NMe2)T[Trp(7-Me)][X6](Me3N+CH2CH2(OCH2CH2)4CO)[Pen][AEF][2Nal][Thp]EN[3Pal][NMeK]([PEG12-γGlu-C18 diacid])-NH2; disulfide 1-6), in assay [2], the half-inhibitory concentration (IC50) was under 0.5 nM.

The record behind these values is US20260250320A1, “LIPIDATED PEPTIDE INHIBITORS OF INTERLEUKIN-23 RECEPTOR” (Janssen Pharmaceutica NV, priority 2023, published 2026).
